# Values quoted from earlier work in article PMC8319603, “Developing C2-Aroyl Indoles as Novel Inhibitors of IDO1 and Understanding Their Mechanism of Inhibition via Mass Spectroscopy, QM/MM Calculations and Molecular Dynamics Simulation” (Frontiers in Chemistry, 2021).
# Where two headings read alike, the source gives them in different places.
# Experiments:
# [1] = tested on: HeLa; conditions: Figure 1; ref Prendergast et al., 2017; cited from earlier work
# [2] = tested on: hIDO1; conditions: 2017, cited from earlier work
# [3] = tested on: SKOV3; parameters: method as in Siu et al., 2017; Wen et al., 2019; conditions: Figure 1; ref Siu et al., 2017; Wen et al., 2019; cited from earlier work
structure (smiles),measurement,setting,value
NS(=O)(=O)NCCNc1nonc1C(=NO)Nc1ccc(F)c(Br)c1 [1b],IC50,[1],1.5 nM
O=C1CC(c2c[nH]c3ccc(F)cc23)C(=O)N1 (centres unmarked) [1d],IC50,[3],70 nM
C[C@@H](C(=O)Nc1ccc(Cl)cc1)C1CCC(c2ccnc3ccc(F)cc23)CC1 (some centres unmarked) [1e],IC50,[3],3.4 nM
